This is an account of results in patent US20260242335A1, “HETEROCYCLOALKYL BETA-HYDROXY ALKYL AMINES FOR USE IN THE TREATMENT OF HYPERGLYCAEMIA AND DISORDERS CHARACTERISED BY HYPERGLYCAEMIA” (ATROGI AB, priority 2023, published 2026).

For assay [1], the system named is L6-myotubes. In words: Glucose uptake (3H-2-deoxyglucose) in differentiated L6-myotubes, compared to isoproterenol. Type of assay: cell-based. To be noted: compound at 10 μM vs isoproterenol at 10 μM, read-out: Biological example 1: glucose uptake activity compared to that of isoproterenol. As for the experimental part: (§1) L6-myoblasts were grown in Dulbecco's Modified Eagle's Medium (DMEM) containing 1 g/L glucose supplemented with 10% fetal bovine serum, 2 mM L-Glutamine, 50 U/mL penicillin, […] streptomycin and 10 mM HEPES. Cells were plated at 1×10^5 cells per mL in 24-well plates. After reaching 90% confluence the cells were grown in medium containing 2% FBS for 7 days where upon cells differentiated into myotubes.
Differentiated L6-myotubes were serum-starved overnight in medium containing 0.5% fatty-acid free BSA and stimulated with an agonist, with a final concentration of 1×10^−5 M. After 1 h 40 min the cells were washed with warm glucose free medium or PBS twice and another portion of agonist was added to the glucose free medium. After 20 min the cells were exposed to 50 nM ^3H-2-deoxyglucose for another 10 min before washed in ice cold glucose free medium or PBS three times and lysed in 400 μL/well 0.2 M NaOH for 1 h at 60° C. The cell lysate was mixed with 4 mL scintillation buffer (Emulsifier Safe, Perkin Elmer) and the radioactivity was detected in a p-counter (Tri-Carb 4810TR, Perkin Elmer). The activity for each compound is compared to that of isoproterenol.

The test system of assay [2] is L6-myotubes. In words: Measurement of intracellular cAMP levels (alpha screen cAMP kit) in differentiated cells, compared to isoproterenol. The class given is cell-based. To be noted: 0.25 h, compound at 10 μM vs isoproterenol at 10 μM, 15 min stimulation, read-out: Biological example 2: intracellular cAMP level activity compared to that of isoproterenol. As for the experimental part: as §1
Differentiated cells were serum-starved overnight and stimulated with an agonist, final concentration 1×10^−5 M, for 15 min in stimulation buffer (HBSS supplemented with 1% BSA, 5 mM HEPES and 1 mM IBMX, pH 7.4). The medium was aspirated and 100 μL of 95% EtOH was added to each well of the 24-well plate and cells were kept at −20° C. overnight. The EtOH was allowed to evaporate and 500 μL of lysis buffer (1% BSA, 5 mM HEPES and 0.3% Tween-20, pH 7.4) was added to each well. The plate was kept at −80° C. for 30 min and then at −20° C. until the day of detection when the samples were thawed. Intracellular cAMP levels were detected using an alpha screen cAMP kit (6760635D from Perkin Elmer). The activity for each compound is compared to that of isoproterenol.

Each structure is given as a SMILES string. Structures can show the parent of a compound that is named as a salt. Some results are limits rather than exact numbers.

For `CC(C)(C[C@@H]1CCCN(C(=O)OC(C)(C)C)C1)NC[C@H](O)c1cccc(F)c1` [Example 1, tert-Butyl (S)-3-(2-(((R)-2-(3-fluorophenyl)-2-hydroxyethyl)amino)-2-methypropyl)piperidine-1-carboxylate acetate], the Emax at 10 µM in the assay on L6-myotubes [1] and in the assay on L6-myotubes [2] was greater than 75% throughout.
Regarding `CC(C)(C[C@@H]1CCCNC1)NC[C@H](O)c1cccc(F)c1` [Example 2, (R)-1-(3-Fluorophenyl)-2-((2-methyl-1-((S)-piperidin-3-yl)propan-2-yl)amino)ethan-1-ol], the Emax at 10 µM was greater than 75% in the assay with L6-myotubes [1] and 25 to 50% with L6-myotubes [2].
On to `CC(=O)N1CCC[C@@H](CC(C)(C)NC[C@H](O)c2cccc(F)c2)C1` [Example 3, 1-((S)-3-(2-(((R)-2-(3-Fluorophenyl)-2-hydroxyethyl)amino)-2-methylpropyl)piperidin-1-yl)ethan-1-one hydrochloride], for which the Emax at 10 µM in the assay on L6-myotubes [1] was greater than 75%; with L6-myotubes [2], 50 to 75%.
In the case of `CC(C)(C[C@@H]1CCCN(S(C)(=O)=O)C1)NC[C@H](O)c1cccc(F)c1` [Example 4, (R)-1-(3-Fluorophenyl)-2-((2-methyl-1-((S)-1-(methylsulfonyl)-piperidin-3-yl)propan-2-yl)amino)ethan-1-ol hydrochloride], the Emax at 10 µM was in the range of 50 to 75% in the assay on L6-myotubes [1] and 25 to 50% in the assay on L6-myotubes [2].
As to `CC(C)(C[C@@H]1CCCN(C(=O)C(C)(C)C)C1)NC[C@H](O)c1cccc(F)c1` [Example 5, 1-((S)-3-(2-(((R)-2-(3-Fluorophenyl)-2-hydroxyethyl)amino)-2-methylpropyl)piperidin-1-yl)-2,2-dimethylpropan-1-one], the Emax at 10 µM in the assay on L6-myotubes [1] was 50 to 75%; in the assay on L6-myotubes [2] it was less than 25%.
With `CC(C)(C[C@@H]1CCCN(C(=O)C(F)(F)F)C1)NC[C@H](O)c1cccc(F)c1` [Example 6, 2,2,2-Trifluoro-1-((S)-3-(2-(((R)-2-(3-fluorophenyl)-2-hydroxyethyl)-amino)-2-methylpropyl)piperidin-1-yl)ethan-1-one], the values for the Emax at 10 µM in the assay on L6-myotubes [1] and in the assay with L6-myotubes [2] were greater than 75% and less than 25%, respectively.
For the compound `COC(=O)N1CCC[C@@H](CC(C)(C)NC[C@H](O)c2cccc(F)c2)C1` [Example 7, Methyl (S)-3-(2-(((R)-2-(3-fluorophenyl)-2-hydroxyethyl)amino)-2-methylpropyl)piperidine-1-carboxylate], the Emax at 10 µM in the assay on L6-myotubes [1] was greater than 75%; with L6-myotubes [2] it was 50 to 75%.
For the compound `CN(C)C(=O)N1CCC[C@@H](CC(C)(C)NC[C@H](O)c2cccc(F)c2)C1` [Example 8, (S)-3-(2-(((R)-2-(3-Fluorophenyl)-2-hydroxyethyl)amino)-2-methyl-propyl)-N,N-dimethylpiperidine-1-carboxamide], the Emax at 10 µM in the assay with L6-myotubes [1] is greater than 75%; in the assay with L6-myotubes [2], less than 25%.
On to `CNC(=O)N1CCC[C@@H](CC(C)(C)NC[C@H](O)c2cccc(F)c2)C1` [Example 9, (S)-3-(2-(((R)-2-(3-Fluorophenyl)-2-hydroxyethyl)amino)-2-methyl-propyl)-N-methylpiperidine-1-carboxamide hydrochloride], for which the Emax at 10 µM in the assay with L6-myotubes [1] is greater than 75%; in the assay on L6-myotubes [2] it was 25 to 50%.
With `CN1C[C@@H](CC(C)(C)NC[C@H](O)c2cccc(F)c2)CCC1=O` [Example 79, (R)-5-(2-(((R)-2-(3-Fluorophenyl)-2-hydroxyethyl)amino)-2-methyl-propyl)-1-methylpiperidin-2-one hydrochloride], in the assay with L6-myotubes [1], the Emax at 10 µM was greater than 75%.
For the compound `CC(=O)NC1(C)CCN(CC(C)(C)NC[C@H](O)c2cccc(F)c2)CC1` [Example 87, (R)—N-(1-(2-((2-(3-Fluorophenyl)-2-hydroxyethyl)amino)-2-methyl-propyl)-4-methylpiperidin-4-yl)acetamide], the Emax at 10 µM in the assay on L6-myotubes [1] was 50 to 75%.
The same measure, in the same setting: next, `CC(C)(CN1CCC(C)(NS(C)(=O)=O)CC1)NC[C@H](O)c1cccc(F)c1` [Example 88, (R)—N-(1-(2-((2-(3-Fluorophenyl)-2-hydroxyethyl)amino)-2-methyl-propyl)-4-methylpiperidin-4-yl)methanesulfonamide dihydrochloride]: 50 to 75%.
